In ChEMBL document CHEMBL1201862, “PubChem BioAssay data set” (2004):
The source made the active and inactive calls.

What was measured:
[1] = system: Streptococcus sp. 'group A'; assay: Streptococcus pyogenes SK(-)GAS viability under kanamycin – luminescence, BacTiterGlo, confirmation, counter-screen for streptokinase expression inhibitor project, dose response (AID 1900); type: functional, organism-based
Streptokinase A = target: T1, Streptokinase A (Streptococcus pyogenes serotype M1, UniProt P10520); assay: viability-normalized secreted streptokinase activity reduction – plasminogen activation absorbance, OD405, dose response (AID 1914); type: functional, Streptococcus pyogenes M1 GAS;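 note: secreted streptokinase activity via plasminogen activation per viability signal from cell pellet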
T1 sequence (P10520 whole entry): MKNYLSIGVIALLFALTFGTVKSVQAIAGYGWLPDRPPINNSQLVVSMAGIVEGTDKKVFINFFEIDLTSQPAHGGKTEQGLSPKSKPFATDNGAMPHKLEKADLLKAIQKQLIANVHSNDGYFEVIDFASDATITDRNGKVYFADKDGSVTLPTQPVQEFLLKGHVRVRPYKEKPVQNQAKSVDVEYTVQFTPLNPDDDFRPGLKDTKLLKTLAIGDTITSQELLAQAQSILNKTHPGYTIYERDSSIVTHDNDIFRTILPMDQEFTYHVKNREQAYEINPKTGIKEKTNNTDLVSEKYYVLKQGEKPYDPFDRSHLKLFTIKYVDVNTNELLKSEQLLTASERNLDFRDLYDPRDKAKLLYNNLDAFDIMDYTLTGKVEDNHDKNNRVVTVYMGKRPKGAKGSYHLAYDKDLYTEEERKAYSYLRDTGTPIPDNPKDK

Streptococcus = assay: GAS UMAA2166 growth inhibition – luminescence, BacTiterGlo, counter-screen for streptokinase expression inhibitor project, dose response (AID 1915); type: functional, organism-based;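 note: potency for reduction of bacterial viability or growth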
[2] = target: T2, Probable nicotinate-nucleotide adenylyltransferase (Staphylococcus aureus (strain N315), UniProt P65502); type: functional, Staphylococcus aureus subsp. aureus N315;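 for IC50 Mean: confirmatory dose-response retesting of NadD inhibitor hits first found in an ultra-high-throughput screen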
[3] = target: T2, Probable nicotinate-nucleotide adenylyltransferase; type: functional, Staphylococcus aureus subsp. aureus N315; conditions: read-out: IC50_Mean
[4] = viability of uninfected HEp-2 cells – cell-based, HTS, cytotoxicity control for RSV inhibitor project, dose response (AID 2410); type: functional; conditions: human respiratory syncytial virus
[5] = blockers of HIV-1 envelope-mediated cell-cell fusion – cherry-pick, dose response (AID 652057); type: functional, cell-based
[6] = viability loss in CEM21 cells – cell-based, CellTiter-Glo luminescence, cherry-picked, cytotoxicity control for viral fusion inhibitor project, dose response (AID 652042); type: functional;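 note: potency for signal decrease meaning cytotoxicity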
[7] = blockers of HIV-1 ZM109 envelope-driven cell-cell fusion – HeLa effector, CEM target cells, luciferase, cherry-pick, dose response (AID 652058); type: functional, cell-based;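 note: luciferase signal from HIV-1 Env mediated cell-cell fusion of effector and target cells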
[8] = off-target signal loss in HeLa-CEM21 co-culture – HeLa F-luc CTL cells, cherry-picked, counter-screen for HIV-1 Env fusion inhibitor project, dose response (AID 652040); type: functional, cell-based;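 note: potency for signal decrease marking cytotoxic or nonspecific inhibition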
[9] = target: T3, Microphthalmia-associated transcription factor (Homo sapiens, UniProt O75030); assay: reducers of TRPM1 reporter luminescence, concentration series – cell-based, SK-MEL-5, cherry-picked, set 3, MITF inhibitor project, dose response (AID 493073); type: functional;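 note: SK-MEL-5 melanoma cells with luciferase driven by the MITF target TRPM1 promoter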
T3 sequence (O75030 whole entry): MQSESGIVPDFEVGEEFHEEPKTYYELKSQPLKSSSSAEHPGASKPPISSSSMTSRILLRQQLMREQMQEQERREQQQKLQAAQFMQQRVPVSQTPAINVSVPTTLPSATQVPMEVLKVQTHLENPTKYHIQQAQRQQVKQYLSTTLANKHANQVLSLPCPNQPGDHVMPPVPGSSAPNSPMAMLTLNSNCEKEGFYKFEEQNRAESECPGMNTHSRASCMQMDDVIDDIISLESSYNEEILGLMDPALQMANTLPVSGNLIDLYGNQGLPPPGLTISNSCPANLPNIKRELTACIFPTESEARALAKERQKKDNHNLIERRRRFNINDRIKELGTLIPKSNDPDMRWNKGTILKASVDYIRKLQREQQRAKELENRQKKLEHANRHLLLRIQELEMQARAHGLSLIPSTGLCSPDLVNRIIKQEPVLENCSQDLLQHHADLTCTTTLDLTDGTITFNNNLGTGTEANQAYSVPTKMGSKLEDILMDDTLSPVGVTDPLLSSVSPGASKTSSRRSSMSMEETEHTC

[10] = Fluorescence-based cell-based high throughput dose response assay for inhibitors of the interaction of nucleotide-binding oligomerization domain containing 2 (NOD2) and the receptor-interacting serine-threonine kinase 2 (RIPK2).; type: functional; conditions: Homo sapiens
[11] = A549 cell cytotoxicity, dose response, cytotoxicity control, plate reader, cherry-pick, antagonist series (AID 743412); type: functional, cell-based
[12] = toxicity toward HepG2 liver cells – cell-based, plate reader, cherry-pick, antagonist series, cytotoxicity control, dose response (AID 743416); type: functional
[13] = blockers of bursicon-stimulated LGR2 cAMP reporter – cell-based, HEK293, CRE-luciferase reporter, cherry pick, set 2, dose response (AID 743343); type: functional;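 note: transfected cells were stimulated with diluted bursicon conditioned medium after compound addition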
[14] = blockade of melanocortin 4 receptor signaling – cell-based, plate reader, cherry pick, counter-screen for LGR2 antagonist project, dose response (AID 743444); type: functional;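 note: transfected HEK 293 cells stimulated with alpha-MSH peptide; potency of inhibitors of the alpha-MSH evoked signal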
[15] = viability loss in HEK293 cells – cell-based, plate reader, cherry-picked samples, cytotoxicity control, dose response (AID 743446); type: functional
[16] = viability of PTEN-deleted HCT116 cells – cell-based, HCT116 PTEN knockout, dose response (AID 1047); type: functional;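 note: HCT116 colon tumor cells with PTEN knocked out; cells exposed to compound for 60 hours before readout; potency for loss of cell viability measured by luminescence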
[17] = viability of HCT116 lacking mutant beta-catenin – cell-based, human colon tumor, dose response (AID 1045); type: functional;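 note: HCT116 colon tumor cells with beta catenin knocked out; cells exposed to compound for 60 hours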
[18] = target: Glucose-6-phosphate 1-dehydrogenase (Homo sapiens, UniProt P11413); assay: inhibition of Homo sapiens G6PD, dose series – biochemical, fluorescence, selectivity assay for P. falciparum G6PD inhibitor project, dose response (AID 504792); type: functional
INS1 = assay: INS-1E survival protection against cytokine death – cell-based, luminescence, retest, dose response (AID 449756); type: functional; conditions: Rattus norvegicus;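 note: cell death triggered by IL-1 beta plus TNF-alpha plus IFN-gamma mixture; protective hits raise ATP signal compared with cytokine alone wells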
[19] = target: T4, Adenosylmethionine-8-amino-7-oxononanoate aminotransferase (Mycobacterium tuberculosis, UniProt P9WQ81); assay: Mycobacterium tuberculosis BioA enzyme inhibitor Measured in Biochemical System Using Plate Reader - 2163-02_Inhibitor_Dose_CherryPick_Activity.; type: functional, Mycobacterium tuberculosis UT205
T4 sequence (P9WQ81 whole entry): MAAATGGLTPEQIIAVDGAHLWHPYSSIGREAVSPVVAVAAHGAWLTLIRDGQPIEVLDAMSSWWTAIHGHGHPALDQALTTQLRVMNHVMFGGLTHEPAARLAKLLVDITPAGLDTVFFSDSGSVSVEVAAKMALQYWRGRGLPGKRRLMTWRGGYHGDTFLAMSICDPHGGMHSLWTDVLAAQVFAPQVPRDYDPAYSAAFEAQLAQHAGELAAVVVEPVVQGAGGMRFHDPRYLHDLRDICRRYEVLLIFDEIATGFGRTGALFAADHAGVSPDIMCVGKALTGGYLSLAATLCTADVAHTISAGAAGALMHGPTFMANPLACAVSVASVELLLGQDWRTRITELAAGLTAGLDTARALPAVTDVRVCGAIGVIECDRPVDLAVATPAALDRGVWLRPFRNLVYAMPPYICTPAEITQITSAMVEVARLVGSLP

[20] = activation of miR-122 Renilla sensor silencing – cell-based, Huh7 psiCHECK-miR122, Renilla luciferase, cherry-picked, dose response (AID 651956); type: functional;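 note: huh7 hepatoma cells stably carrying a psiCHECK-2 miR-122 sensor plasmid; renilla luciferase signal reporting endogenous miR-122 activity after 48 h compound exposure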
[21] = target: T5, Carboxy-terminal domain RNA polymerase II polypeptide A small phosphatase 1 (Homo sapiens, UniProt Q9GZU7); assay: CTDSP1 inhibitors, concentration-response, biochemical, absorbance readout, ultra-high-throughput screen actives (AID 540297); type: functional
T5 sequence (Q9GZU7 whole entry): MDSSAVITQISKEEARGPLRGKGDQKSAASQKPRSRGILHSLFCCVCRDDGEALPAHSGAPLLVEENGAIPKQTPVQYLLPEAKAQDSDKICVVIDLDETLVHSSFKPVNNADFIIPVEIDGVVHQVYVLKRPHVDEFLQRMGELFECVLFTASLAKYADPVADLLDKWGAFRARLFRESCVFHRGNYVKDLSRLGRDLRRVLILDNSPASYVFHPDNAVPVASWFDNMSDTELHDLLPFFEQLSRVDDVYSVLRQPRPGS

[22] = intracellular Trypanosoma cruzi inhibitors in host cells – cell-based, plate reader, cherry-pick samples, set 3, dose response (AID 651818); type: functional;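 note: compounds incubated with infected cells for about four days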

T2 sequence (P65502 whole entry): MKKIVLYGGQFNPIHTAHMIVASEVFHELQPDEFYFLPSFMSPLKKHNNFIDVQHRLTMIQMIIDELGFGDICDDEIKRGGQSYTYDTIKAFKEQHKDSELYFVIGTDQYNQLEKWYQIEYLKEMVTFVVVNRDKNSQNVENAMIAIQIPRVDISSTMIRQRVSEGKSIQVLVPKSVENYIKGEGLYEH
Chain of Glucose-6-phosphate 1-dehydrogenase (P11413 whole entry): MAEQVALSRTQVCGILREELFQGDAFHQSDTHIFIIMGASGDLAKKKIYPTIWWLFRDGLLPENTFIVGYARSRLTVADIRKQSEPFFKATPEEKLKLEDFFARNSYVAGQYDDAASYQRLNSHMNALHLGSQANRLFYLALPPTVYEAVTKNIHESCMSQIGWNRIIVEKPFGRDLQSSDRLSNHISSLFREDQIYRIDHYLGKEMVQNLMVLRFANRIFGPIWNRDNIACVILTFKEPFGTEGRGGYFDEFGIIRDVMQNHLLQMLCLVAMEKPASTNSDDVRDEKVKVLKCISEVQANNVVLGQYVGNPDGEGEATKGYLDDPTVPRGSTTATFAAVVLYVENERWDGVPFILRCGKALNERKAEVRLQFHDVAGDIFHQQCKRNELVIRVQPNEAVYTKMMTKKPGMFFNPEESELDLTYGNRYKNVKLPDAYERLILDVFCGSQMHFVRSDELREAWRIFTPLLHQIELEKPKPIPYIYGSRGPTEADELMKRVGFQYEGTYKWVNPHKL

In the case of Cc1nn(-c2ccc(Cl)cc2)c(Cl)c1/C=N/NC(=O)c1ccc(NS(=O)(=O)c2cccs2)cc1, the EC50 [1] is reported as 1.53 µM (active), the EC50 (Streptokinase A) is reported as > 150 µM (not active) and the EC50 (Streptococcus) is reported as 5.2 µM (active). The IC50 [2] was 7.71 µM (active) and the IC50 [3] was 27.4 µM (active).

In the case of O=S(=O)(c1cccc(Cl)c1)N1CCCC(c2nc(O)c3nnn(Cc4ccc5c(c4)OCCO5)c3n2)C1 (stereo unspecified), the CC50 [4] is reported as 11.3 µM (active), the IC50 [2] is reported as 9.91 µM (active) and the IC50 [3] is reported as 30.5 µM (active). The IC50 (cells) was 10.3 µM (active).

With C[C@H](O)[C@@H]1C(=O)N2CCc3c([nH]c4cccc(-c5ccccc5)c34)[C@@H]2C[C@@H]1N(C)C(=O)OCc1ccccc1 the AC50 [5] was 5.22 µM (active), the AC50 [6] was 32.5 µM (active) and the AC50 [7] was 3.65 µM (active). For the same compound, the AC50 [8] was 3.94 µM (active).

With Cc1cc(Br)ccc1NC(=O)CNC(=O)Cn1ncc(Cl)c(Cl)c1=O the AC50 [9] was 7.47 µM (active), the IC50 [10] was 1.84 µM (active) and the AC50 [11] was 3.92 µM (active). For the same compound, the AC50 [12] was > 52 µM (inactive), the AC50 [13] was 4.51 µM (active) and the AC50 [14] was 5.41 µM (active). For the same compound, the AC50 [15] was 4.54 µM (active).

With CCC(CO)N1C(C)=CC(=Cc2sc3ccccc3[n+]2Cc2ccccc2)C=C1C (stereo unspecified) the EC50 [16] was 1.19 µM (active), the EC50 [17] was 0.775 µM (active) and the IC50 [18] was > 80 µM (inactive). The AC50 (INS1) was 0.613 µM (active) and the AC50 [19] was 2.73 µM (active).

For CCOC(=O)c1c(SCCN2CCCC2)n(-c2ccccc2)c(=S)n(-c2ccccc2)c1=O, the IC50 [10] was 1.09 µM (active).

In the case of COc1ccccc1C#Cc1ccc([C@H]2[C@@H](CO)N3CCCCN(CCC(F)(F)F)C[C@H]23)cc1, the AC50 [20] is reported as 17.6 µM (active).

In the case of Cc1noc(C)c1NC(=O)N(C)C[C@@H]1Oc2c(NC(=O)c3ccncc3)cccc2C(=O)N([C@H](C)CO)C[C@@H]1C, the IC50 [21] is reported as 7.66 µM (active), the IC50 [2] is reported as 27.3 µM (active) and the IC50 [3] is reported as 38.7 µM (active).

In the case of C[C@@H]1CN([C@H](C)CO)C(=O)Cc2cc(NS(=O)(=O)c3ccc(Cl)cc3)ccc2O[C@@H]1CN(C)S(=O)(=O)c1ccc(F)cc1, the AC50 [22] is reported as 7.57 µM (active).
